Source: US20100239596A1, “GRP78 AND TUMOR ANGIOGENESIS” (UNIVERSITY OF SOUTHERN CALIFORNIA, priority 2007, published 2010)

Experiments:
[1] = test system: BEC (normal human brain endothelial cells); assay: MTT cell viability assay, BEC; format: cell-based; settings: 50 μM etoposide, 72 hours, vs DMSO vehicle
Protocol: (§1) Cell Culture. Endothelial cells (EC) were isolated from normal human brain tissue or human glioma tissue as previously described (Charalambous et al, J. Neurosurg., 102:699-705, 2005; Charalambous et al, Exp Cell Res., 313:1192-202, 2007). All experiments were performed on subconfluent (60-80%) cultures, in passages 4 to 6 only.
(§2) MTT cell viability assay. Cells were plated in triplicate (3×10^3 cells/well; […]) into 96-well plates coated with 1% gelatin. The 3-(4,5-dimethylthiazol-2-yl)-2,5-diphenyltetrazolium bromide (MTT) assay was performed according to the manufacturer's instructions (Sigma-Aldrich, St. Louis, Mo.). Percent cell viability was calculated relative to vehicle-treated controls.
(§3) To compare the sensitivities of TuBEC and BEC to chemotherapeutic agents, cells were treated with the topoisomerase II inhibitor, etoposide [1-50 μM] or DMSO (vehicle) [0.1%] for 72 hours, and cytoxicity was assessed using the MTT assay, which was performed according to manufacturer's protocol (Sigma Aldrich; St. Louis, Mo.).

[2] = test system: TuBEC (tumor-associated brain endothelial cells); assay: MTT cell viability assay, TuBEC; format: cell-based, human; settings: 50 μM etoposide, 72 hours, vs DMSO vehicle
Protocol: as §1, §2, §3

[3] = test system: TuBEC (tumor-associated brain endothelial cells); format: cell-based; settings: seven days; for TuBEC cell death, agent alone: TMZ 300 μM, CPT-11 100 μM, Eto 50 μM, EGCG 20 μM
Protocol: Cell death ELISA. EC were treated with etoposide (Calbiochem; La Jolla, Calif.), temozolomide (TMZ) (Schering-Plough; Kenilworth, N.J.), CPT-11 (Pharmacia; New York, N.Y.), the caspase inhibitor Q-VDOPH (Calbiochem), or EGCG (Sigma-Aldrich, St. Louis, Mo.), then assayed using the Cell Death Detection ELISA Plus kit (Roche Diagnostics; Indianapolis, Ind.) according to manufacturer's protocol. Percent death was calculated based on 100% positive cell death control.
Lentiviral construct. The sequences of siRNA, the isolation of human Grp78 cDNA and their subcloning into lentiviral constructs are previously described (Dong et al, Cancer Res., 65:5785-91, 2005). The sequences of the siRNA against human GRP78 are: siGRP78A: 5′-[…]-3′ (SEQ ID NO:1) and siGRP78B: 5′-[…]-3′ (SEQ ID NO:2). The sequences of the control siRNA are: sicontrol A: 5′-[…]-3′ (SEQ ID NO:3); sicontrol B: 5′-[…]-3′ (SEQ ID NO:4). For construction of lentivirus expressing GRP78, full length human GRP78 was prepared by reverse transcription of total HEK293T RNA followed by a 2-step PCR amplification and subcloning into the BamHI/XhoI sites of pcDNA3 (Invitrogen; Carlsbad, Calif.) to yield pcDNA3-hGRP78. Non-replicating lentiviral vectors co-expressing bicistronic human GRP78 and EGFP linked via the EMCV IRES were produced using the pLenti6/V5-D-TOPO and VIRAPOWER™ Lentivirus Expression system (Invitrogen, Carlsbad, Calif.). Initially, EGFP (Clonetech; Mountain View, Calif.) was inserted into the CMV driven expression cassette by TOPO cloning. […] The human GRP78 gene digested from pcDNA3-hGRP78 using XbaI and XhoI was ligated into pLenti6/EGFP between the CMV promoter and the EGFP gene. Next, an insert encoding the EMCV IRES, was generated by PCR from pIRES-EGFP (Clonetech) and subcloned into the XhoI/AgeI sites of pLenti6/huGRP78 EGFP. The IRES sequence was inserted between the human GRP78 gene and the EGFP allowing hGRP78 expression to be monitored by EGFP fluorescence. The manufacturer's manual was followed for TOPO cloning and production of viral particles. For infection, 10^4 cells were plated in 6-well dishes and infected with lentivirus at titers of 5×10^6 units/ml (TU/ml). Infected cells, monitored for GFP, were used when cultures were 100% GFP positive.
To test whether GRP78 confers drug resistance to TuBEC, TuBEC cultures were infected with lentivirus expressing siGRP78A and siCtr1A. Five days post infection, cultures were left untreated (media), or treated with CPT-11 [100 μM], etoposide (Eto) [50 μM] or temozolomide (MZ) [300 μM]. After treatment for seven days, the cells were analyzed for cytotoxicity.
To target GRP78 through a small molecule approach, TuBEC were incubated with EGCG alone or in combination with TMZ, CPT-11, and Eto. Cytotoxicity was measured after seven days (FIG. 3D).

COc1cc([C@@H]2c3cc4c(cc3[C@@H](O[C@@H]3O[C@@H]5CO[C@@H](C)O[C@H]5[C@H](O)[C@H]3O)[C@H]3COC(=O)[C@H]23)OCO4)cc(OC)c1O [etoposide]
BEC died (cytotoxicity, MTT assay) [1]: over 60%
cell death of TuBEC (cytotoxicity, MTT assay) [2]: no significant cell death
TuBEC cell death, agent alone [3]: did not cause TuBEC cell death

(−)-epigallocatechin gallate [EGCG]
cell death, EGCG in combination with CPT-11 ([3]; EGCG 20 μM + CPT-11 100 μM, p=0.005): 46%
cell death, EGCG in combination with Eto ([3]; EGCG 20 μM + Eto 50 μM, p=0.001): 49%
cell death, EGCG in combination with TMZ ([3]; EGCG 20 μM + TMZ 300 μM, p=0.003): 35%
TuBEC cell death, agent alone [3]: did not cause TuBEC cell death

CC(C)[C@H](NC(=O)c1ccc2ccccc2n1)C(=O)N[C@@H](CC(=O)O)C(=O)COc1c(F)cccc1F [Q-VDOPH]
effect of caspase inhibition on cell death induced by CPT-11, Eto or TMZ with reduced GRP78 ([3]; Q-VDOPH [10 mM], TuBEC infected with siGRP78B): blocked cell death

CCc1c2c(nc3ccc(OC(=O)N4CCC(N5CCCCC5)CC4)cc13)-c1cc3c(c(=O)n1C2)COC(=O)[C@]3(O)CC [CPT-11]
TuBEC cell death, agent alone [3]: did not cause TuBEC cell death
